Inhibition data for 24 compounds are collected here from patent publication US7595398B2, “N-(5-membered aromatic ring)-amido anti-viral compounds” (SmithKline Beecham Corporation, priority 2005, dated 2009).

The experiment concerns HCV replicon I389luc-ubi-neo/NS3-3′/ET in ET (Huh-lucubineo-ET) cells; screening for HCV RNA dependent RNA polymerase. As to the kind of experiment: Replicon Assay (luciferase, ET cell line Huh-lucubineo-ET). It is filed as cell-based. Conditions: Hepatitis C virus; inhibition of replication relative to no compound control; test concentration of 10 μM according to the fitted equation; luciferase 48-72 hours. The protocol: A cell line, ET (Huh-lucubineo-ET) was used for screening of compounds of the present invention for HCV RNA dependent RNA polymerase. The ET cell line was stably transfected with RNA transcripts harboring a I389luc-ubi-neo/NS3-3′/ET; replicon with firefly luciferase-ubiquitin-neomycin phosphotransferase fusion protein and EMCV-IRES driven NS3-5B polyprotein containing the cell culture adaptive mutations (E1202G; T12801; K1846T) (Krieger at al, 2001 and unpublished). The ET cells were grown in DMEM, supplemented with 10% fetal calf serum, 2 mM Glutamine, Penicillin (100 IU/mL)/Streptomycin (100 μg/mL), 1× nonessential amino acids, and 250 μg/mL G418 (“Geneticin”). They were all available through Life Technologies (Bethesda, Md.). The cells were plated at 0.5-1.0×10^4 cells/well in the 96 well plates and incubated for 24 hrs before adding nucleoside analogs. […] Luciferase activity were measured 48-72 hours later by adding a lysis buffer and the substrate (Catalog number Glo-lysis buffer E2661 and Bright-Glo luciferase system E2620 Promega, Madison, Wis.). Cells should not be too confluent during the assay. Percent inhibition of replication was plotted relative to no compound control. Under the same condition, cytotoxicity of the compounds was determined using cell proliferation reagent, WST-1(Roche, Germany). The compounds showing antiviral activities, but no significant cytotoxicities were chosen to determine IC50 and TC50. For these determinations, 10 concentrations of each compound were used. Concentrations for test compounds typically span a range of 500 fold. IC50 and TC50 values were calculated by fitting % inhibition at each concentration (I) to the following equation: % inhibition=100%/[1+10^(log IC50−log (I))*b] where b is Hill's coefficient.
In the case of `O=C(Nc1nc(-c2cccc3ccccc23)cs1)[C@@H]1CCCN1C(=O)OCc1ccccc1` [Compound 5055, 2-(4-Naphthalen-1-yl-thiazol-2-ylcarbamoyl)-pyrrolidine-1-carboxylic acid benzyl ester], at 10 µM the inhibition was 99.3%.

Regarding `O=C(Nc1nc(-c2ccc(F)c(F)c2)cs1)[C@@H]1CCCN1C(=O)OCc1ccccc1` [Compound 5056, 2-[4-(3,4-Difluoro-phenyl)-thiazol-2-ylcarbamoyl]-pyrrolidine-1-carboxylic acid benzyl ester], the inhibition – broadly, the percentage by which the read-out fell short of the control – at 10 µM was determined as 99.3%.

For the compound `O=C(Nc1nc(-c2ccc3c(c2)Cc2ccccc2-3)cs1)[C@@H]1CCCN1C(=O)OCc1ccccc1` [Compound 5058, 2-[4-(9H-Fluoren-2-yl)-thiazol-2-ylcarbamoyl]-pyrrolidine-1-carboxylic acid benzyl ester], the inhibition at 10 µM was 18.6%.

In the case of `O=C(Nc1nc(-c2c(F)cccc2F)cs1)[C@@H]1CCCN1C(=O)OCc1ccccc1` [Compound 5059, 2-[4-(2,6-Difluoro-phenyl)-thiazol-2-ylcarbamoyl]-pyrrolidine-1-carboxylic acid benzyl ester], the inhibition at 10 µM worked out at 88%.

For the compound `O=C(Nc1nc(-c2ccc3ccccc3c2)cs1)[C@@H]1CCCN1C(=O)OCc1ccccc1` [Compound 5060, 2-(4-Naphthalen-2-yl-thiazol-2-ylcarbamoyl)-pyrrolidine-1-carboxylic acid benzyl ester], the inhibition at 10 µM stood at 98.4%.

Consider `O=C(Nc1nc(CSc2nc(-c3ccc(F)cc3)cs2)cs1)[C@@H]1CCCN1C(=O)OCc1ccccc1` [Compound 5061, 2-{4-[4-(4-Fluoro-phenyl)-thiazol-2-ylsulfanylmethyl]-thiazol-2-ylcarbamoyl}-pyrrolidine-1-carboxylic acid benzyl ester], for which testing at 10 µM gave an inhibition of 88.4%.

Consider `Cc1cc(-c2csc(NC(=O)[C@@H]3CCCN3C(=O)OCc3ccccc3)n2)cc(C)c1C` [Compound 5062, 2-[4-(3,4,5-Trimethyl-phenyl)-thiazol-2-ylcarbamoyl]-pyrrolidine-1-carboxylic acid benzyl ester], for which the inhibition at 10 µM came to 94.7%.

Take `O=C(Nc1ncc(Cc2ccc(Cl)cc2)s1)[C@@H]1CCCN1C(=O)OCc1ccccc1` [Compound 5063, 2-[5-(4-Chloro-benzyl)-thiazol-2-ylcarbamoyl]-pyrrolidine-1-carboxylic acid benzyl ester]: the inhibition at 10 µM came to 51.7%.

For the compound `O=C(Nc1nc(CSc2nc3ccccc3[nH]2)cs1)[C@@H]1CCCN1C(=O)OCc1ccccc1` [Compound 5064, 2-[4-(1H-Benzoimidazol-2-ylsulfanylmethyl)-thiazol-2-ylcarbamoyl]-pyrrolidine-1-carboxylic acid benzyl ester], at 10 µM the inhibition was 18.1%.

For `O=C(Nc1cc(-c2ccccc2)nn1-c1ccccc1)[C@@H]1CCCN1C(=O)OCc1ccccc1` [Compound 5065, 2-(2,5-Diphenyl-2H-pyrazol-3-ylcarbamoyl)-pyrrolidine-1-carboxylic acid benzyl ester], 10 µM produced 27.2% inhibition.

`O=C(Nc1nc(-c2ccc(OCc3ccc(Br)cc3)cc2)cs1)[C@@H]1CCCN1C(=O)OCc1ccccc1` [Compound 5066, 2-{4-[4-(4-Bromo-benzyloxy)-phenyl]-thiazol-2-ylcarbamoyl}-pyrrolidine-1-carboxylic acid benzyl ester] had an inhibition at 10 µM of 5.72%.

`Cc1cccc(Cc2cnc(NC(=O)[C@@H]3CCCN3C(=O)OCc3ccccc3)s2)c1` [Compound 5067, 2-[5-(3-Methyl-benzyl)-thiazol-2-ylcarbamoyl]-pyrrolidine-1-carboxylic acid benzyl ester] yielded an inhibition at 10 µM of 23.9%.

`O=C(Cc1csc(NC(=O)[C@@H]2CCCN2C(=O)OCc2ccccc2)n1)NCCc1ccccc1` [Compound 5068, 2-[4-(Phenethylcarbamoyl-methyl)-thiazol-2-ylcarbamoyl]-pyrrolidine-1-carboxylic acid benzyl ester] came in with an inhibition at 10 µM of 13.5%.

`CC(C)c1ccc(-c2csc(NC(=O)[C@@H]3CCCN3C(=O)OCc3ccccc3)n2)cc1` [Compound 5069, 2-[4-(4-Isopropyl-phenyl)-thiazol-2-ylcarbamoyl]-pyrrolidine-1-carboxylic acid benzyl ester] returned an inhibition at 10 µM of 3.15%.

`CCCCC(=O)Nc1ccc(-c2csc(NC(=O)[C@@H]3CCCN3C(=O)OCc3ccccc3)n2)cc1` [Compound 5089, 2-[4-(4-Pentanoylamino-phenyl)-thiazol-2-ylcarbamoyl]-pyrrolidine-1-carboxylic acid benzyl ester] displayed an inhibition at 10 µM of 100%.

With `COc1ccc(-c2csc(NC(=O)[C@@H]3CCCN3C(=O)OCc3ccccc3)n2)cc1Cl` [Compound 5090, 2-[4-(3-Chloro-4-methoxy-phenyl)-thiazol-2-ylcarbamoyl]-pyrrolidine-1-carboxylic acid benzyl ester], the inhibition at 10 µM stood at 99.8%.

In the case of `COc1ccc(-c2csc(NC(=O)[C@@H]3CCCN3C(=O)OCc3ccccc3)n2)cc1[N+](=O)[O-]` [Compound 5091, 2-[4-(4-Methoxy-3-nitro-phenyl)-thiazol-2-ylcarbamoyl]-pyrrolidine-1-carboxylic acid benzyl ester], at 10 µM the inhibition was 100%.

Take `CCNC(=O)c1ccc(-c2csc(NC(=O)[C@@H]3CCCN3C(=O)OCc3ccccc3)n2)cc1` [Compound 5092, 2-[4-(4-Ethylcarbamoyl-phenyl)-thiazol-2-ylcarbamoyl]-pyrrolidine-1-carboxylic acid benzyl ester]: the inhibition at 10 µM came out at 100%.

In the case of `O=C(CCCCC1SCC2NC(=O)NC21)Nc1ccc(-c2csc(NC(=O)[C@@H]3CCCN3C(=O)OCc3ccccc3)n2)cc1` (stereo partly drawn) [Compound 5093, 2-(4-{4-[5-(2-Oxo-hexahydro-thieno[3,4-d]imidazol-4-yl)-pentanoylamino]-phenyl}-thiazol-2-ylcarbamoyl)-pyrrolidine-1-carboxylic acid benzyl ester], testing at 10 µM gave an inhibition of 100%.

In the case of `CCc1ccc(-c2csc(NC(=O)[C@@H]3CCCN3C(=O)OCc3ccccc3)n2)cc1` [Compound 5094, 2-[4-(4-Ethyl-phenyl)-thiazol-2-ylcarbamoyl]-pyrrolidine-1-carboxylic acid benzyl ester], the inhibition at 10 µM came out at 3.49%.

On to `O=C(NC1CC1)c1ccc(-c2csc(NC(=O)[C@@H]3CCCN3C(=O)OCc3ccccc3)n2)cc1` [Compound 5096, 2-[4-(4-Cyclopropylcarbamoyl-phenyl)-thiazol-2-ylcarbamoyl]-pyrrolidine-1-carboxylic acid benzyl ester], for which at 10 µM the inhibition was 100%.

In the case of `O=C(Nc1nc(-c2ccc(Br)cc2)cs1)[C@@H]1CCCN1C(=O)OCc1ccccc1` [Compound 5097, 2-[4-(4-Bromo-phenyl)-thiazol-2-ylcarbamoyl]-pyrrolidine-1-carboxylic acid benzyl ester], the inhibition at 10 µM amounted to 43.3%.

The compound `O=C(Nc1nc(-c2ccc(F)cc2)cs1)[C@@H]1CCCN1C(=O)OCc1ccccc1` [Compound 5098, 2-[4-(4-Fluoro-phenyl)-thiazol-2-ylcarbamoyl]-pyrrolidine-1-carboxylic acid benzyl ester] showed an inhibition at 10 µM of 97.2%.

Compound `CCCc1ccc(-c2csc(NC(=O)[C@@H]3CCCN3C(=O)OCc3ccccc3)n2)cc1` [Compound 5099, 2-[4-(4-Propyl-phenyl)-thiazol-2-ylcarbamoyl]-pyrrolidine-1-carboxylic acid benzyl ester] yielded an inhibition at 10 µM of 35.7%.
